Reference: patent US20040019118A1, “NMDA receptor antagonists and their use in inhibiting abnormal hyperphosphorylation of microtubule associated protein tau” (priority 2002, published 2004)
Entries after “also recorded” stand apart in the source; their conditions may differ.

Legend:
[1] = target: T1, PP-2A (Rattus norvegicus, UniProt P63331); assay: PP-2A activity in extracts of treated hippocampal slice cultures; type: cell-based
T1 construct: from tissue; host or cells: organotypic culture of adult rat hippocampal slices; 16,000xg extract
T1 sequence (P63331 whole entry): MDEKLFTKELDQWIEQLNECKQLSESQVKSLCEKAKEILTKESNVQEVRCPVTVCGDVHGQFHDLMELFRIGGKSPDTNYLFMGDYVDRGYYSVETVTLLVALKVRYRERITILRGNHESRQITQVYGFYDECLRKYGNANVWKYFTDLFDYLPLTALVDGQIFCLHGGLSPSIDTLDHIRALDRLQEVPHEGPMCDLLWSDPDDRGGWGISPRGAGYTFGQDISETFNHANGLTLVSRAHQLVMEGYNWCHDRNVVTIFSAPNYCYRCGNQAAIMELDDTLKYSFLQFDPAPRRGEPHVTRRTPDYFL
Experimental: (§1) Organotypic cultures of rat hippocampal slices were prepared from 20-30 day old Wistar rats and cultured with the interface method as described previously (Stoppini, et al. 1991; Bahr, et al. 1995; Zhongrin, et al. 2000). The rats were anesthetized with ketamine (100 mg/kg body weight) and decapitated and the hippocampi were dissected out and sliced into 400 um coronal sections by a McIllwain tissue chopper. Select slices with uninterrupted bright transparent neuronal layers were plated, 1-3 slices/filter, onto Millicell CM filters (Millipore, Bedford, Mass.). For the first 2 days in vitro (DIV) cultures were maintained in 25% horse serum, 50% Basal Media-Eagle (BEM), 25% Eagle's Balanced Salt Solution (EBSS), 25 mM HEPES, 1 mM glutamine, 28 mM glucose, pH 7.2, at 32° C. in a 5% CO2 humidified atmosphere. The slice cultures were then switched to 25% horse serum, 50% BEM and EBSS modified so that the potassium concentration was 2.66 mM, for another 5 DIV. After 7 DIV, the cultures were maintained in physiological potassium containing 5% horse serum medium at 35° C. for at least 20 days before any treatment was applied. When the slices were treated, the reagents were applied into the culture medium. At different time points, the slices collected with a brush were washed twice in homogenizing buffer (50 mM HEPES, pH 7.0, 10 mM β-merceptoethanol [BME], 1 mM EDTA, 1 mM EGTA, 0.1 mM phenylmethyl sulfonyl fluoride [PMSF], 2.0 mM benzamidine and 2.0 μg/ml each of aprotinin, leupeptin and pepstatin) and homogenized at 4° C. using a Teflon-glass homogenizer. The homogenate was then divided into two parts, one was centrifuged at 16000×g for 15 min and the supernatant was used to assay activities of PP-2A and PP-1. The rest of the homogenate was diluted 1:1 with a phosphatase inhibitor cocktail (20 mM β-glycerophosphate, 2 mM Na3VO4 and 100 mM NaF, pH 7.0) and either used for Western blots or centrifuged at 16000×g for 15 min and the resulting supernatant used to determine the kinase activities.
Activities of PP-2A and PP-1 were assayed towards [^32P] phosphorylase-a as a substrate as described previously (Gong, et al. 1994). The phosphatase activity was assayed in 20 μl of reaction mixture containing 50 mM Tris, pH 7.0, 10 mM BME, 0.1 mM EDTA, 7.5 mM caffeine, 7.5 ng/μl [^32P]phosphorylase-a and 0.06 mg/ml slice culture extract. The reaction was started by adding ^32P-phosphorylase-a. After incubation for 30 min at 30° C., 7 μl of the reaction mixture was spotted on to 31 ETCHR chromatography paper which had been prespotted with 10 μl stop solution (4 mM ATP+20% TCA). Then the ^32p released was separated from the protein-incorporated ^32P by paper chromatography in 5% TCA and 0.2 M NaCl, paper strips dried, cut and counted by Cerenkov radiation. A PP-1 specific inhibitor, inhibitor-1 (Hitken, et al. 1982) was included in the assays for PP-2A activity. PP-1 activity was calculated by subtracting the PP-2A activity from the total phosphorylase-a phosphatase activity (PP-1/PP-2A) assayed in the absence of inhibitor-1.

[2] = test system: CaMKII; assay: CaMKII activity in extracts of treated hippocampal slice cultures; type: cell-based, rat
Experimental: as §1
CaMKII activity was measured in 25 μl of buffer containing 50 mM HEPES, pH 7.5, 10 mM MgCl2, 2.0 mM CaCl2, 10 mM BME, 10 μg/ml calmodulin (CaM), 20 μM syntide (Sigma, St Louis Mo., USA), 0.06 mg/ml slice extract and 200 μM [γ^32P]ATP. The reaction was initiated by adding [γ32p] ATP. After incubation for 10 min at 30° C., 10 μl reaction mixture was removed and spotted on to phosphocellulose membrane. The membrane was then washed five times in 1% phosphoric acid to remove non-protein incorporated ^32P, dried and counted by Cerenkov radiation. The activity of PKA was determined as above except the reaction mixture contained 70 mM NaHPO4, pH 6.8, 14 mM MgCl2, 1.4 mM EDTA, 30 μM malantide (Sigma, St Louis, Mo., USA), 200 μM [γ^32p] ATP and 0.06 mg/ml slice extract.

[3] = test system: MAPK; assay: MAPK activity in extracts of treated hippocampal slice cultures; type: cell-based, rat
Experimental: as §1, with “The” for “Organotypic cultures of rat hippocampal slices were prepared from 20-30 day old Wistar rats and cultured with the interface method as described previously (Stoppini, et al. 1991; Bahr, et al. 1995; Zhongrin, et al. 2000). The”, “For the first 2 days in vitro (DIV) cultures were maintained in 25% horse serum, 50% Basal Media-Eagle (BEM), 25% Eagle's Balanced Salt Solution (EBSS), 25 mM HEPES, 1 mM glutamine, 28 mM glucose, pH 7.2, at 32° C. in a 5% CO2 humidified atmosphere. The slice cultures were then switched to 25% horse serum, 50% BEM and EBSS modified so that the potassium concentration was 2.66 mM, for another 5 DIV.” left out
Immobilized protein G (Pierce, Rockford, Ill.), 20 μl, was mixed in 50 mM Tris, pH 7.4, 150 mM NACl, 10 mM NaF, 1.0 mM Na3VO4, 2.0 mM EGTA, 1 mM PMSF, 5 μg/ml leupeptin, 5 μg/ml aprotinin, 2 μg/ml pepstatin, 25 μg/ml phosphoramidon. After incubation at 4° C. overnight, the mixture was centrifuged and the beads were washed three times. The beads were then resuspended in 50 mM Tris, pH 7.4, containing 10 mM MgCl2. MAPK substrate peptide (UBI, Lake Placid, N.Y.) was employed for the MAPK assay. […]

[4] = test system: tau; assay: Tau phosphorylation by radioimmuno-dot-blots and 125I-Western blots of slice homogenates; type: cell-based, rat; conditions: 0.3 mM glutamate, 1 h
Experimental: as §1, with “The” for “Organotypic cultures of rat hippocampal slices were prepared from 20-30 day old Wistar rats and cultured with the interface method as described previously (Stoppini, et al. 1991; Bahr, et al. 1995; Zhongrin, et al. 2000). The”, “For the first 2 days in vitro (DIV) cultures were maintained in 25% horse serum, 50% Basal Media-Eagle (BEM), 25% Eagle's Balanced Salt Solution (EBSS), 25 mM HEPES, 1 mM glutamine, 28 mM glucose, pH 7.2, at 32° C. in a 5% CO2 humidified atmosphere. The slice cultures were then switched to 25% horse serum, 50% BEM and EBSS modified so that the potassium concentration was 2.66 mM, for another 5 DIV.” left out
Triplicate samples of each homogenate were applied to nitrocellulose membrane (Schleicher and Schuell, Keene, N.H.) and dried at 37° C.

Row | Structure (SMILES) | effect on PP-2A activity ([1]; after 0.3 mM glutamate 1 h, 10 μM Memantine or 15 μM MK801) | CaMKII activity after replacement of glutamate ([2]; after 0.3 mM glutamate, fresh medium with or without 10 μM Memantine or 15 μM MK801) | effect on MAP kinase activity ([3]; after 0.3 mM glutamate, 10 μM Memantine or 15 μM MK801) | change in PP-2A activity ([1]; 0.3 mM glutamate, 1 h) | CaMKII activity as % of control ([2]; 0.3 mM glutamate, 1 h) [%] | change in CaMKII activity ([2]; 0.3 mM glutamate, 1 h) | phosphorylation of tau at Ser-262 [4] | change in MAPK activity ([3]; 0.3 mM glutamate, 1 h)
1 | C[C@]12N[C@H](Cc3ccccc31)c1ccccc12 [MK801] | no effect | restored the CaMKII activity to normal level | no effect | – | – | – | – | –
2 | N[C@@H](CCC(=O)O)C(=O)O [glutamate] | – | – | – | did not induce any detectable change; also recorded: not accompanied by any changes; also recorded: without any effect | ~180 | marked increase | increased markedly | did not induce any detectable change; also recorded: not accompanied by any changes; also recorded: without any effect
